From paper PMC4878759 (PLoS ONE, 2016)

Key:
human wild-type CFTR = target: T1, human wild-type CFTR (Homo sapiens, UniProt P13569); assay: Apical membrane current in FRT cells expressing CFTR; type: cell-based; conditions: up to 30 μM, CFTR activated by 20 μM forskolin
T1 construct: expressed in transfected cells; host or cells: Fischer rat thyroid (FRT) cells
Procedure: (§1) Snapwell inserts containing ANO1, ANO2 or CFTR expressing FRT cells, ENaC expressing T-84 cells or the human primary airway epithelial cells were mounted in Ussing chambers (Physiologic Instruments, San Diego, CA). To induce transcriptional ENaC induction, the polarized T84 cells were incubated with 2 mM sodium butyrate for 2 days. To increase the functional expression of ANO1, the human airway epithelial cells were treated with IL-4 (10 ng/mL) for 2 days. For T-84 and the human primary airway epithelial cells, the apical and basolateral bath were filled with HCO3^—buffered solution containing (in mM): 120 NaCl, 5 KCl, 1 MgCl2, 1 CaCl2, 10 D-glucose, 2.5 HEPES, and 25 NaHCO3 (pH 7.4). For FRT cells, the basolateral bath was filled with the HCO3^—buffered solution and the apical bath was filled with a half-Cl^- solution. In the half-Cl^- solution 65 mM NaCl in the HCO3^—buffered solution was replaced by Na-gluconate. […] ATP was applied to the apical bath solution to induce intracellular calcium increase. […] Apical membrane currents were measured with an EVC4000 Multi-Channel V/I Clamp (World Precision Instruments, Sarasota, FL) and PowerLab 4/35 (AD Instruments, Castle Hill, Australia). Data were analyzed using Labchart Pro 7 (AD Instruments). The sampling rate was 4 Hz.
(§2) ANO1 was activated by either 10 μM Eact, an ANO1 activator, or 100 μM ATP.

ENaC = target: T2, ENaC (Homo sapiens, UniProt P37088+P51168+P51170); assay: Short circuit current in T84 cells expressing ENaC; type: cell-based; conditions: up to 30 μM
T2 construct: endogenous in cells; host or cells: T84 cells, ENaC induced with 2 mM sodium butyrate for 2 days
T2 sequence (P37088 1-669): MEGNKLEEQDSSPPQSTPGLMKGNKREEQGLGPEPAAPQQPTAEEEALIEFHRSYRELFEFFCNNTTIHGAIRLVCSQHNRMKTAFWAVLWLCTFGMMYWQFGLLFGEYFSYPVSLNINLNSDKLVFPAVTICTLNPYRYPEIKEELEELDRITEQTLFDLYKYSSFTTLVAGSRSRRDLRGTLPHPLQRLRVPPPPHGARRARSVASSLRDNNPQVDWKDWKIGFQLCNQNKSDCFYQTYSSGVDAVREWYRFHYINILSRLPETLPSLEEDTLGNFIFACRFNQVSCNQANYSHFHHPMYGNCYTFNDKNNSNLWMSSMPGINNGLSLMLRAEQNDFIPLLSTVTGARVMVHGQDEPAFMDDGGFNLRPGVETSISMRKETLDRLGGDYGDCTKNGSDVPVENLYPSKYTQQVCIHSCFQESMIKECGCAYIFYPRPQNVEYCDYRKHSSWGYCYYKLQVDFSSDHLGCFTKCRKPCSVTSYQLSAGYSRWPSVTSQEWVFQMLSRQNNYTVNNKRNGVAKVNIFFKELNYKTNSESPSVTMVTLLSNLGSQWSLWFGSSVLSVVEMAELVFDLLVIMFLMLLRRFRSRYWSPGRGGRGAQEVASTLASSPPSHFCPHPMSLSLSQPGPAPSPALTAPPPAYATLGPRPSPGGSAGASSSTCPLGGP
T2 sequence (P51168 1-640): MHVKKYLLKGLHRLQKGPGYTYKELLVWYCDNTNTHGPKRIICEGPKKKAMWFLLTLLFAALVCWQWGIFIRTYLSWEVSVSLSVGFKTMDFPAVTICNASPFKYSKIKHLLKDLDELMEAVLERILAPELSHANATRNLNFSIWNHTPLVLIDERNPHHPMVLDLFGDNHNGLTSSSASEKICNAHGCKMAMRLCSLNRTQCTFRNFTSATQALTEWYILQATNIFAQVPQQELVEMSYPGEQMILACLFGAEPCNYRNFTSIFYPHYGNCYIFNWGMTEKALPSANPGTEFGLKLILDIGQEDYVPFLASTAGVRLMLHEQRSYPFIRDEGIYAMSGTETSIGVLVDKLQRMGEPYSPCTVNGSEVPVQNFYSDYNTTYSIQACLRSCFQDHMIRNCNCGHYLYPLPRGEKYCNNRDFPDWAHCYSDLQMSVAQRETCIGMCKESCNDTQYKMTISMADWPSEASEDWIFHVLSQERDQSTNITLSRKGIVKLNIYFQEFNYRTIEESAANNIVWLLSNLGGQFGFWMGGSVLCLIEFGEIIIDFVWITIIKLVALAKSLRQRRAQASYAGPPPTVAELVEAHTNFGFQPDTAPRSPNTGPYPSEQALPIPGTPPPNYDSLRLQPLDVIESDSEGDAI
T2 sequence (P51170 1-649): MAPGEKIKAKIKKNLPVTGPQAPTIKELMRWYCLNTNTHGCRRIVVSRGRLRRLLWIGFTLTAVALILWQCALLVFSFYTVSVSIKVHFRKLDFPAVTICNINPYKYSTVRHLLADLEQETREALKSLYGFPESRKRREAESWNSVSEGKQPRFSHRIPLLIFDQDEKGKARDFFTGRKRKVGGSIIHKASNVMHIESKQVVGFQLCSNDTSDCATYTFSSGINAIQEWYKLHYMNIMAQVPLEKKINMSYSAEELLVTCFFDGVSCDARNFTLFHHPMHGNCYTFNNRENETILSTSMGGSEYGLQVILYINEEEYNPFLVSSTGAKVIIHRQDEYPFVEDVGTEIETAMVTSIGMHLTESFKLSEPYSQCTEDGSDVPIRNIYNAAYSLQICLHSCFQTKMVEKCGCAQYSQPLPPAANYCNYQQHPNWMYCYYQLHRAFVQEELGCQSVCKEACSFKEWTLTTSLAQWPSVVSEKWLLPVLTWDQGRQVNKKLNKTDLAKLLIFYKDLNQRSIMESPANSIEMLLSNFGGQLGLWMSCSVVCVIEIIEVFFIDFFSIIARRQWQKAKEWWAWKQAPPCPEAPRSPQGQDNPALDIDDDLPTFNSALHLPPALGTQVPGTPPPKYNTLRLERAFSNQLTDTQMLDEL
Procedure: as §1, §2

T1 sequence (P13569 whole entry): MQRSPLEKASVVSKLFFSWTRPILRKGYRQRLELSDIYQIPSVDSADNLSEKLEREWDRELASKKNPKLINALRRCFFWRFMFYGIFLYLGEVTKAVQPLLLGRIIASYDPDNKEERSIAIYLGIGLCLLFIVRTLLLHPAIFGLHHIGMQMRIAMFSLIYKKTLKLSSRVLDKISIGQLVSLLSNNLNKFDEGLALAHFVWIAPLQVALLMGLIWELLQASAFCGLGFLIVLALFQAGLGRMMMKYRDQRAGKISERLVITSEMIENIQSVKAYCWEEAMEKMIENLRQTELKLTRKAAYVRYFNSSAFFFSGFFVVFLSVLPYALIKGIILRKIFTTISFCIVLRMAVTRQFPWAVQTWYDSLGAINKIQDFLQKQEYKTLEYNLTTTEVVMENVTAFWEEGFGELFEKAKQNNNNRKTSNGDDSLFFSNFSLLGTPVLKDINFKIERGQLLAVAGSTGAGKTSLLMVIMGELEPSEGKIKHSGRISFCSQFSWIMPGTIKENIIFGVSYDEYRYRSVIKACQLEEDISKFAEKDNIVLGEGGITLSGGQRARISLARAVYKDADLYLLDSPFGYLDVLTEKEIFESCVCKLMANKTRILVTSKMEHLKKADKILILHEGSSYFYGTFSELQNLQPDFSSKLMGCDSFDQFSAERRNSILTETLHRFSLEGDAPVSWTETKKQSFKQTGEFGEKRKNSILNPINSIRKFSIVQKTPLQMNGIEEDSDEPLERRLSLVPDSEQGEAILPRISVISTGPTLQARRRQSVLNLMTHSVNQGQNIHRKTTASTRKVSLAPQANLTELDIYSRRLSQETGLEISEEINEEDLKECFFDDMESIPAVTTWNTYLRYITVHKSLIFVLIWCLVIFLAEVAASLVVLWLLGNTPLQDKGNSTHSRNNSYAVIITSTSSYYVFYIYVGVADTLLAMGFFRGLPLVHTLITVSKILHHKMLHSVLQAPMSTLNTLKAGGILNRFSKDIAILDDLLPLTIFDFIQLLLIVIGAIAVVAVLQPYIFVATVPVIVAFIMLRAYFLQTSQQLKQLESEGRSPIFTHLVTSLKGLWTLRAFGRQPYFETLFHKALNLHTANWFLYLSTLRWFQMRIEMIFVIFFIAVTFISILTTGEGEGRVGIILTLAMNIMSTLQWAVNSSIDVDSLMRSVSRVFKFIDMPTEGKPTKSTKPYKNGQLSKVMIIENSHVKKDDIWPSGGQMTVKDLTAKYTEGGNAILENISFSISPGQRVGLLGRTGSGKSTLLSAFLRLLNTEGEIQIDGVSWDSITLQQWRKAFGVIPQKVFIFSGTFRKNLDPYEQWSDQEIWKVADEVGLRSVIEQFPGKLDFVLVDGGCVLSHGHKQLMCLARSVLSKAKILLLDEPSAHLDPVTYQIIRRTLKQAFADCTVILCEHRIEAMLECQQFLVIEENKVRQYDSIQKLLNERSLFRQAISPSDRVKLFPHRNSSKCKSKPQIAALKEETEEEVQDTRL

COc1ccccc1C=NNC(=O)COc1ccc(Cl)cc1C [Ani9, 2-(4-chloro-2-methylphenoxy)-N-[(2-methoxyphenyl)methylideneamino]-acetamide]
effect on CFTR channel activity (human wild-type CFTR): no effect
effect on ENaC channel activity (ENaC): no effect
